US11427558B1, “Indazoles and azaindazoles as LRRK2 inhibitors” (ESCAPE Bio, Inc., priority 2019, dated 2022)

Assays:
[1] = molecular target: Recombinant G2019S-LRRK2 protein (Homo sapiens (Human), UniProt Q5S007, G2019S); assay: LRRK2 kinase activity, LanthaScreen TR-FRET assay (G2019S); type: biochemical; conditions: LRRKtide 400 nM, 25 μM ATP, 60 min
In short: (§1)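 Recombinant human wild-type or G2019S LRRK2 phosphorylated fluorescein-labelled LRRKtide (ERM-based) with ATP and serially diluted compound for 60 min at room temperature.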

[2] = molecular target: Recombinant wild type LRRK2 protein (Homo sapiens (Human), UniProt Q5S007); assay: LRRK2 kinase activity, LanthaScreen TR-FRET assay (wild type); type: biochemical; conditions: LRRKtide 400 nM, 25 μM ATP, 60 min; read-out: LRRK2 WT IC50
Recombinant wild type LRRK2 protein, sequence (Q5S007 whole entry): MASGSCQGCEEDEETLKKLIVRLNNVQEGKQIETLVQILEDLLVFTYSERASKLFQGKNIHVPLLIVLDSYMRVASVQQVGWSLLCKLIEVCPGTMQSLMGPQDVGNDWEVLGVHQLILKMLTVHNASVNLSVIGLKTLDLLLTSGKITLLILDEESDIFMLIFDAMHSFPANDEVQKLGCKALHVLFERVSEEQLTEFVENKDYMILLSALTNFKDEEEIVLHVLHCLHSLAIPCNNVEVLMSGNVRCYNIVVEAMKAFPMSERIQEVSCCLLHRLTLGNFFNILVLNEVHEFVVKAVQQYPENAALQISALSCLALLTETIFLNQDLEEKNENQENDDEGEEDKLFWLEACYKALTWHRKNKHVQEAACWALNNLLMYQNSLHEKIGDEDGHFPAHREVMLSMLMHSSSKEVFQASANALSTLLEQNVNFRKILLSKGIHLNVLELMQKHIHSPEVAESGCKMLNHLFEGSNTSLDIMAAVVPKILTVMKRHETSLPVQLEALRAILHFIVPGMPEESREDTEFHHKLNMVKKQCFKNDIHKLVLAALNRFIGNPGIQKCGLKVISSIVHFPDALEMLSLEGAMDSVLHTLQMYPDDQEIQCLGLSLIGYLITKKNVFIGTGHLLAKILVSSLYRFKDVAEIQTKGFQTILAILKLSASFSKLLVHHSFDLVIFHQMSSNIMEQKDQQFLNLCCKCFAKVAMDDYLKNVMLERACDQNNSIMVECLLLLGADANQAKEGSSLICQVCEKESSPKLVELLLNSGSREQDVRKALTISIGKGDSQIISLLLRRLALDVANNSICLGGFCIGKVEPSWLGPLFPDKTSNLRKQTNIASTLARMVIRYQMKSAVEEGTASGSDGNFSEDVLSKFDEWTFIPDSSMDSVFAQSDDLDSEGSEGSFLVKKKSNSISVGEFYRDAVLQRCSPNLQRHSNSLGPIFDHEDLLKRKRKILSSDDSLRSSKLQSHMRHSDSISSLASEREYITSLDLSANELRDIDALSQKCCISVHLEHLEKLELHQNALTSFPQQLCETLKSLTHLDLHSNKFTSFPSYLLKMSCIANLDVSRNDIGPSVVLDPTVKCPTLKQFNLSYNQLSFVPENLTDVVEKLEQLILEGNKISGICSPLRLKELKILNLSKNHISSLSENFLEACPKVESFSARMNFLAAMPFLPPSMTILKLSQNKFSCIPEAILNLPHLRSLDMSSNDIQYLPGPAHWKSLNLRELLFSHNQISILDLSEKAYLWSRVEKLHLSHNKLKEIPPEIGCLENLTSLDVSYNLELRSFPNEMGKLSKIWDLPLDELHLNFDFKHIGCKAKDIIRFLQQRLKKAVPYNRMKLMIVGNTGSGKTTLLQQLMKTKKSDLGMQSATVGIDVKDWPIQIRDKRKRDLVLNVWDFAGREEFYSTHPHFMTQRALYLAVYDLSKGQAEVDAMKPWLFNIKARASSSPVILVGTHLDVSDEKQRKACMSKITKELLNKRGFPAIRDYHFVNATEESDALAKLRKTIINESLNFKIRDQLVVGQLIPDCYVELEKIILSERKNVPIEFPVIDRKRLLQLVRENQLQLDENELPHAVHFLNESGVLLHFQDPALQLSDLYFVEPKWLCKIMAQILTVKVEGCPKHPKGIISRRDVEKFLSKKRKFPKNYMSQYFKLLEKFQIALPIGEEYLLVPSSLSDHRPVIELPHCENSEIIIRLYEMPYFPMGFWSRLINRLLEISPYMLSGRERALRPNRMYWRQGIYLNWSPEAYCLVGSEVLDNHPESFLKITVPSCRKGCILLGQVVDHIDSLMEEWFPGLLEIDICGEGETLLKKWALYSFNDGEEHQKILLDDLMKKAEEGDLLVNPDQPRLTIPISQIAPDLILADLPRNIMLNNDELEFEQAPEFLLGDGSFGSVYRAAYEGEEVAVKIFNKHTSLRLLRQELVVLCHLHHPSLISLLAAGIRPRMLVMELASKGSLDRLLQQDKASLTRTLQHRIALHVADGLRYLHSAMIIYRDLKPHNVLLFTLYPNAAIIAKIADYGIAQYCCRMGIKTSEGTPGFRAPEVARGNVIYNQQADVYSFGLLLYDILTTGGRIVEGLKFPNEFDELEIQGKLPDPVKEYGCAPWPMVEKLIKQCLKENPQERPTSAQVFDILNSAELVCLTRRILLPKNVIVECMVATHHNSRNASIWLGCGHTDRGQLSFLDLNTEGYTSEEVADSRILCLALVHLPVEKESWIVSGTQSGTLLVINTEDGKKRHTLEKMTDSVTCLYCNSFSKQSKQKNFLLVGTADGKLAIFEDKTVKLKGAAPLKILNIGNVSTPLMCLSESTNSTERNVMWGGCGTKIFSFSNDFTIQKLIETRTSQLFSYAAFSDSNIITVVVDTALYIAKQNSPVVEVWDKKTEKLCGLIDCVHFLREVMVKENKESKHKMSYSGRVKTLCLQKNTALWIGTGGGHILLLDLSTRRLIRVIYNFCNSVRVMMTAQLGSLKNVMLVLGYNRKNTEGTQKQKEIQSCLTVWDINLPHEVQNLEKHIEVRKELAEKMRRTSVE
In short: as §1

Recombinant G2019S-LRRK2 protein, sequence (Q5S007 whole entry G2019S): as the sequence (Q5S007 whole entry) above, with G2019S counted along it

| Structure (SMILES) | IC50 [1] [nM] | IC50 [2] [nM] |
| --- | --- | --- |
| Cc1cc(C#N)cnc1C(=O)Nc1ccc2[nH]nc(-c3ccnc(C#N)c3)c2c1 [Example 113, 5-Cyano-N-(3-(2-cyanopyridin-4-yl)-1H-indazol-5-yl)-3-methylpicolinamide] | < 100 | 100 to 1000 |
| Cc1cc(C#N)cnc1C(=O)Nc1ccc2[nH]nc(-c3ccccn3)c2c1 [Example 114, 5-Cyano-3-methyl-N-(3-(pyridin-2-yl)-1H-indazol-5-yl)picolinamide] | 100 to 1000 | 1000 to 10000 |
| Cc1cc(C#N)cnc1C(=O)Nc1ccc2[nH]nc(-c3ccnc(N4C[C@H](C)O[C@@H](C)C4)c3)c2c1 [Example 115, 5-Cyano-N-(3-(2-((2S,6S)-2,6-dimethylmorpholino)pyridin-4-yl)-1H-indazol-5-yl)-3-methylpicolinamide] | < 100 | < 100 |
| N#Cc1cnc(C(=O)Nc2ccc3[nH]nc(-c4ccoc4)c3c2)c2sccc12 [Example 116, 4-Cyano-N-(3-(furan-3-yl)-1H-indazol-5-yl)thieno[2,3-c]pyridine-7-carboxamide] | 100 to 1000 | 1000 to 10000 |
| Cc1cc(C#N)cnc1C(=O)Nc1ccc2[nH]nc(-c3ccnc(N4C[C@H](C)C[C@H](C)C4)c3)c2c1 [Example 117, 5-Cyano-N-(3-(2-((3R,5S)-3,5-dimethylpiperidin-1-yl)pyridin-4-yl)-1H-indazol-5-yl)-3-methylpicolinamide] | < 100 | 100 to 1000 |
| Cc1cc(C#N)cnc1C(=O)Nc1ccc2[nH]nc(-c3ccnc(N4C[C@@H](C)O[C@@H](C)C4)c3)c2c1 [Example 118, 5-Cyano-N-(3-(2-((2S,6R)-2,6-dimethylmorpholino)pyridin-4-yl)-1H-indazol-5-yl)-3-methylpicolinamide] | < 100 | < 100 |
| Cc1cc(C#N)cnc1C(=O)Nc1ccc2[nH]nc(-c3cccc(N4C[C@@H](C)O[C@@H](C)C4)c3)c2c1 [Example 119, 5-Cyano-N-(3-(3-((2S,6R)-2,6-dimethylmorpholino)phenyl)-1H-indazol-5-yl)-3-methylpicolinamide] | < 100 | 100 to 1000 |
| N#Cc1ccc(F)c(C(=O)Nc2ccc3[nH]nc(-c4ccoc4)c3c2)c1F [Example 120, 3-Cyano-2,6-difluoro-N-(3-(furan-3-yl)-1H-indazol-5-yl)benzamide] | < 100 | < 100 |
| Cc1cc(C#N)cnc1C(=O)Nc1ccc2[nH]nc(-c3cncc(Cl)c3)c2c1 [Example 121, N-(3-(5-Chloropyridin-3-yl)-1H-indazol-5-yl)-5-cyano-3-methylpicolinamide] | < 100 | 100 to 1000 |
| N#Cc1ccc(F)c(C(=O)Nc2ccc3[nH]nc(-c4ccoc4)c3c2)c1 [Example 122, 5-Cyano-2-fluoro-N-(3-(furan-3-yl)-1H-indazol-5-yl)benzamide] | < 100 | < 100 |
| Cc1cc(C#N)cnc1C(=O)Nc1ccc2[nH]nc(-c3cnn(C)c3C)c2c1 [Example 123, 5-Cyano-N-(3-(1,5-dimethyl-1H-pyrazol-4-yl)-1H-indazol-5-yl)-3-methylpicolinamide] | < 100 | 100 to 1000 |
| Cn1cc(C#N)nc1C(=O)Nc1ccc2[nH]nc(-c3ccoc3)c2c1 [Example 124, 4-Cyano-N-(3-(furan-3-yl)-1H-indazol-5-yl)-1-methyl-1H-imidazole-2-carboxamide] | < 100 | < 100 |
| N#Cc1ccc(O)c(C(=O)Nc2ccc3[nH]nc(-c4ccoc4)c3c2)c1 [Example 125, 5-Cyano-N-(3-(furan-3-yl)-1H-indazol-5-yl)-2-hydroxybenzamide] | 100 to 1000 | 100 to 1000 |
| Cc1cc(C#N)cnc1C(=O)Nc1ccc2[nH]nc(-n3ccnc3)c2c1 [Example 126, N-(3-(1H-Imidazol-1-yl)-1H-indazol-5-yl)-5-cyano-3-methylpicolinamide] | < 100 | 100 to 1000 |
| N#Cc1cccc(C(=O)Nc2ccc3[nH]nc(-c4ccoc4)c3c2)n1 [Example 127, 6-Cyano-N-(3-(furan-3-yl)-1H-indazol-5-yl)picolinamide] | < 100 | < 100 |
